We go through eleven compounds from ChEMBL document CHEMBL1121741, “Acidic epinephrine analogues derived from 1H, 3H-2,1,3-benzothiadiazole 2,2-dioxide and from trifluoromethanesulfonanilide. A new synthesis of 1H,3H-2,1,3-benzothiadiazole 2,2-dioxide” (J Med Chem, 1981).

Molecules are shown by their SMILES.

The nature of series [1]: Acidity determined spectrometrically. Format: ADME.
Series [2] is described as follows: Acidity of compound was determined. It is filed as ADME.
The nature of series [3]: Partition coefficient (logP). The conditions noted are these: octanol/water. Format: physicochemical.

In general, pKa refers to the negative logarithm of the acid dissociation constant. A higher pKa goes with a group that holds its proton tightly. In turn, `NCC(O)c1ccc2c(c1)NS(=O)(=O)N2` (stereo unspecified) came in with a pKa in series [1] of 4.68.
`CNCC(O)c1ccc2c(c1)NS(=O)(=O)N2` (stereo unspecified) showed a pKa in series [1] of 4.67.
What is called logP is the decadic logarithm of the partition coefficient of the neutral form, usually between octanol and water. A lower logP goes with a more hydrophilic compound. Compound `O=S(=O)(CF)Nc1ccccc1` registered a pKa in series [2] of 7.53. Also, the logP in series [3] came out at 1.35.
`CS(=O)(=O)Nc1ccccc1`: the pKa in series [2] was determined as 8.85. In series [3], this compound had a lipophilicity (logP) of 0.95.
Turning to `CC(C)NCC(O)c1ccc2c(c1)NS(=O)(=O)N2` (stereo unspecified), the pKa in series [1] came out at 4.68.
Compound `O=S1(=O)Nc2ccccc2N1` had a pKa in series [2] of 5.26. The compound further had a log partition coefficient (logP) in series [3] of 1.12.
`CC(C)NCC(O)c1ccc(NS(=O)(=O)C(F)(F)F)cc1` (stereo unspecified): the pKa in series [1] was 3.65.
Still for that read-out and setting: then `CC(C)(C)NCC(O)c1ccc2c(c1)NS(=O)(=O)N2` (stereo unspecified), with 4.7; and `CC(C)NCC(O)c1cccc(NS(=O)(=O)C(F)(F)F)c1` (stereo unspecified), with 3.63.
As for `O=S(=O)(Nc1ccccc1)C(F)(F)F`, in series [2], the pKa was found to be 4.45. In addition, in series [3], the log partition coefficient (logP) was 3.03.
For `Oc1cccc(O)c1` [RESORCINOL], in that order: 9.5 and 0.85.
